The values that follow come from article PMC6014988, “Precision therapeutic targeting of human cancer cell motility” (Nature Communications, 2018).

Data set [1] is described as follows: Single intravenous dose organ function study. The format is in vivo. As to conditions: CD1 mice, single iv 15, 75 or 125 mg/kg, day 8 and 14. An excerpt:
Supplementary Figure 7. KBU2046 treatment is not associated with systemic off-target effects. For histologic examination of tissue, cohorts of N=5 male 6-8 week old Balb/c athymic […]
KBU2046 as described in manuscript Figure 2a. After 35 days of treatment, the following organs were harvested at necropsy, and stained with H&E (alternative staining methods as indicated): heart, lungs, esophagus, stomach, colon, small intestine, liver (Trichrome staining), kidneys (Trichrome staining), adrenals, bladder, prostate, spleen, pancreas, brain, testes, and bone marrow and peripheral blood (Giemsa staining). Organs were examined for damage using a semi-quantitative histological scoring system, as described 4. […]
except in the livers of both control and treatment mice. Changes in the liver observed in control mice were not increased by KBU2046 treatment. […]
gm/mouse, this translated to 5-7 week old females and 4.5-5.5 week old males. […] On day 8 and 14, all critical organs were weighed, and the following parameters measured in blood: cholesterol, triglycerides, alanine aminotransferase (ALT), aspartate aminotransferase (AST), total bilirubin, glucose, phosphorus, total protein, calcium, blood urea nitrogen (BUN), creatinine, albumin, Na, K, Cl, white blood cells (with differential), red blood cells, hemoglobin, […]

For data set [2], the system named is 284 kinases and 20 phosphatases. Nature of the data set: KinaseProfiler and PhosphataseProfiler assay platforms. The format is biochemical. An excerpt:
There were two initial false positives (for a false positive rate of 0.4%), that were subsequently found to be negative in a dedicated follow up analysis. Specific and important negative findings include MKK4, p38 MAPK (α, β, γ and δ […]
by competing for phospho-acceptor binding.
Kinase assay system #2. The Kinex™ kinase assay system (Kinexus Proteomics Company).
This platform uses recombinant human protein kinases expressed in an insect expression system, thus allowing an avenue for post-translational modification. Also, this platform measures inhibition of ATP binding. This platform putatively measured 200 different kinases, and we […]
tested KBU2046 at 1 and 10 μM. […] There were two […]
important technical issues. First, at 10 μM KBU2046 interfered with the colorimetric-based […]
However, while considering the above factors, this screen was informative for a number of […]
function by competing for ATP binding in the active site.
Kinase assay system #3. KinaseProfiler™ and PhosphataseProfiler™ assay platforms (Millipore). This platform is radiometric-based (considered gold standard). It measures competition with respect to ATP for kinases and substrate protein for phosphatases. Most proteins were expressed via an insect-based system, and it evaluates a panel of 284 kinases and 20 phosphatases. There were two initial false positives, for a false positive rate of 0.7%, but both […]

Data set [3] deals with PC3-M cells. Nature of the data set: Boyden chamber cell invasion assay, PC3-M cells. It counts as cell-based, human. As to the method: Boyden chamber cell invasion assays were performed as previously described by us[30], using either denatured collagen (BD Biosciences) or type IV human collagen (BD Biosciences), with all experiments repeated, each in N = 4 replicates. In some experiments, as indicated, cells were transfected with an expression plasmid, using Lipofectamine 2000™ (Invitrogen), or with siRNA, using DharmaFect Duo (Thermo Scientific) and co-transfected with β-Galactosidase (Plasmid pCMV•SPORT-βgal; Life Technology). […]
For cell invasion, PC3-M cells […]
were treated with 10 µM compound for a total of 3 days, and cell invasion assays were run at the end of the 3 day period, in the presence of compound. Values are the mean±SEM of three separate experiments, each run in replicates of N=3. […]
assays were performed with PC3-M cells. Values are the mean±SEM of a single experiment, in replicates of N=4, repeated at least once (also N=4). […]

Data set [4] concerns 1542CPTX. Nature of the data set: Three-day MTT cell growth inhibition assay, 1542CPTX. The format is cell-based, human. To be noted: Homo sapiens, 72 h, 3 days.
Data set [5] concerns the target T1, HSP90β (Homo sapiens, UniProt P08238).
T1 construct: made in house; host or cells: Rosetta BL-21 E. coli
Nature of the data set: Biophysical binding assays and DARTS, isolated HSP90β. To be noted: ITC, thermal shift, biolayer interferometry, dynamic light scattering, DARTS. As for the experimental part: Fluorescent thermal shift, isothermal titration calorimetry, and biolayer interferometry assays[46] were all performed as described by us using MEK4EE (37-399, S257E, T261E) cloned into pMCSG7 and KRX Competent E. coli cells (Promega Inc.) and above denoted full-length HSP90B and CDC37 vectors and Rosetta BL-21 and BL-21 DE-3 competent E. coli cells, respectively. DARTS assays were conducted as described, using equimolar amounts of CDC37 and HSP90β, thermolysin digestion, and silver stain visualization (ProteoSilver Silver Stain Kit, Sigma-Aldrich).
Supplementary Figure 14. […] Studies used purified […]
recombinant HSP90β or CDC37. Fluorescent thermal shift 5, isothermal titration calorimetry 6, […]
evidence of KBU2046 binding to either HSP90β or CDC37 (data not shown). For DARTS assay, HSP90β or CDC37 were individually pre-incubated with KBU2046, thermolysin added, and reaction products were separated by SDS PAGE and visualized by silver stain (depicted above).
NTco – no thermolysin control. However, when the DARTS assay was conducted with both HSP90β and CDC37 present, KBU2046 protected both proteins from degradation in a concentration-dependent manner (see manuscript Fig 5A).
(also on this page, place not known: HSP90 Ntco 0 0.001 0.01 0.1 1.0 10 µM KBU2046, thermolysin NTco thermolysin CDC37)
(1 picture or pasted object on this page, not shown here)

A short description of data set [6]: Three-day MTT cell growth inhibition assay, PC3M. The format is cell-based, human. To be noted: human, PC3M cells; PC3M; 3 days. An excerpt: (§1) Assays were in replicates of N = 3, and were repeated. […]
(§2) Values are the mean±SEM of a single experiment, in
(§3) replicates of N=4, repeated at least once (also N=4).
(§4) Supplementary Figure 1b. Synthetic round #2.

In data set [7] the test system is PC3M. Nature of the data set: Three-day MTT cell growth inhibition assay, PC3M. The format is cell-based, human.
Source text: as §1, §2, §3, §4

T1 sequence (P08238 whole entry): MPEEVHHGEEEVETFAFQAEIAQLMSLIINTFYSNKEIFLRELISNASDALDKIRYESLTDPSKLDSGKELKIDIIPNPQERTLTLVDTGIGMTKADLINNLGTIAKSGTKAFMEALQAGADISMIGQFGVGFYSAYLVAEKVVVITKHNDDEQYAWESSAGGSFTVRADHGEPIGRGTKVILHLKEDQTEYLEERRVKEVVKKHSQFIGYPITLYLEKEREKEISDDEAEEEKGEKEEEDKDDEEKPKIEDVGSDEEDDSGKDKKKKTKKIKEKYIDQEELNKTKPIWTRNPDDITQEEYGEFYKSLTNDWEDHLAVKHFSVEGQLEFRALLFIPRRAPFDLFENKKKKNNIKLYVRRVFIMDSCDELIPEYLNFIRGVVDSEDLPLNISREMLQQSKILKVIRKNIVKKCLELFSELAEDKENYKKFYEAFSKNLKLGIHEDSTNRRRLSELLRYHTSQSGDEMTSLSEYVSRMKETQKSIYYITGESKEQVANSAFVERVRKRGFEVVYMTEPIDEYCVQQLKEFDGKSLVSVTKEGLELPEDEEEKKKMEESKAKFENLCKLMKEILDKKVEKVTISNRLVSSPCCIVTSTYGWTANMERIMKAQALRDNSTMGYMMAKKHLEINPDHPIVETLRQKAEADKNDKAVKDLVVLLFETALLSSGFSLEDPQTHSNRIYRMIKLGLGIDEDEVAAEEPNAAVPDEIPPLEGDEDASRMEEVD

As a reminder, the IC20 is the point of the concentration-response curve where the effect stands at 20%. The term IC50 denotes the concentration that gives 50% inhibition. A high value points to lower potency. For orientation: viability means the share of living cells, or the viability signal relative to a control. Lower therefore signals a greater loss of cells. For `O=C1c2ccccc2OCC1c1ccc(F)cc1` (racemic) [KBU2046, (±)-3(4-fluorophenyl)chroman-4-one], the “organ weights, clinical chemistry and blood parameters” value in data set [1] was “No abnormal alterations”. Further, the “inhibition of phosphatase activity” value in data set [2] (20 phosphatases) is recorded as “No evidence supports inhibition”. The “inhibition of kinase activity” value in data set [2] (radiometric, 284 kinases) is on record as “no evidence that KBU2046 inhibits”. Besides, the “anti-invasion efficacy under TGFβ stimulation” value in data set [3] (PC3-M cells pretreated, then ± TGFβ) was “retains efficacy”. In addition, the anti-invasion activity result in data set [3] (PC3-M cells, 10 µM compound, 3 days) is recorded as “anti-invasive efficacy at least equal”. Further, the IC20 in data set [4] was greater than 50 µM; in data set [7] (Homo sapiens, PC-3M, 72 h, PC3M, concentration inhibiting cell growth by 20% after 3 days), greater than 50 µM. The IC50 was greater than 50 µM in data set [4] and greater than 50 µM in data set [7] (Homo sapiens, PC-3M, 72 h, PC3M, concentration inhibiting cell growth by 50% after 3 days). Moreover, in data set [5], the “binding to HSP90β” value is “no evidence of KBU2046 binding”. The molecule also returned a viability at 3 days, 50 µM in data set [6] of 100%. In addition, the cell growth inhibition entry in data set [7] (PC3-M cells, three day MTT, SAR rounds) is given as “no growth inhibitory”.
